We go through one compound from patent publication US10098900B2, “Pharmaceutical compositions and their use for treatment of cancer and autoimmune diseases” (ZHEJIANG DTRM BIOPHARMA CO. LTD., priority 2015, dated 2018).

Marks after values point to notes of the source that are not given here.

Data set [1] can be described thus: 28-day toxicity/toxicokinetic (TK) study in rats. An excerpt: Toxicity and toxicokinetic (TK) studies of the compounds can be performed by well known methods.
The test system of data set [2] is adjuvant-induced arthritis. Put plainly: Adjuvant-induced arthritis (AA/AIA) model in female Lewis rats (paw volume, clinical score, histopathology). The data set is classed as in vivo, rat. More on the design: Pathological score (Mean ± SEM), Inflammatory cell infiltration / Pathological score (Mean ± SEM), Pannus growth / Pathological score (Mean ± SEM), Cartilage injury / Pathological score (Mean ± SEM), Bone resorption / Pathological score (Mean ± SEM), Total: scale not given here. Conditions: for Paw volume (mL), Mean: 5 mg/kg BID. An excerpt:
Adjuvant-Induced Arthritis AA Model: […] All rats except the normal group were immunized with complete Freund's adjuvant (CFA) subcutaneously at the left hind paw to induce arthritis at day 0. […] The treatments were given orally for 3 consecutive weeks. The body weight, paw volume and clinical score were monitored every other day after day 13 throughout the course of the study. At the terminal point, right hind paws were collected for histopathology analysis with H.E. staining.

As to `C=CC(=O)N1CC[C@@H](n2nc(-c3ccc(Oc4c(F)c(F)cc(F)c4F)cc3F)c3c(N)ncnc32)C1` [Compound 3, 1-((R)-3-(4-amino-3-(2-fluoro-4-(2,3,5,6-tetrafluorophenoxy)phenyl)-1H-pyrazolo[3,4-d]pyrimidin-1-yl)pyrrolidin-1-yl)prop-2-en-1-one], in data set [1] (28-day rat and dog studies), the “difference in drug exposure between Day 1 and Day 28” value is “no significant difference”; the “difference in drug exposure between male and female” value is reported as “no significant difference”. For the same compound, the “AUC compared with ibrutinib” value in data set [1] (rats) was “significantly higher”. The “Paw volume (mL), Mean” value in data set [2] (Day 0) was found to be 1.04 mL. In addition, in data set [2] (Day 17), the “Paw volume (mL), Mean” value is listed as 1.87 ns mL. In data set [2] (Day 26), the “Paw volume (mL), Mean” value is given as 2.29** mL. In data set [2] (Day 28), the “Paw volume (mL), Mean” value was 2.12*** mL. Further, the “Paw volume (mL), Mean” value in data set [2] (Day 31) was 2.12*** mL. Besides, the “Paw volume (mL), Mean” value in data set [2] (Day 33) is 2.09*** mL. The “effect on paw volume” value in data set [2] (AA rats model, FIG. 13) is listed as “absent”. In data set [2] (AA study, 3 alone, 5 mg/kg), the “Pathological score (Mean ± SEM), Bone resorption” value turned out to be 3.0 ± 0.45; the “Pathological score (Mean ± SEM), Cartilage injury” value was found to be 2.8 ± 0.51; the “Pathological score (Mean ± SEM), Inflammatory cell infiltration” value was determined as 3.5 ± 0.34; the “Pathological score (Mean ± SEM), Pannus growth” value is reported as 3.2 ± 0.53. The “Pathological score (Mean ± SEM), Total” value in data set [2] (AA study, 3 alone, 5 mg/kg) is listed as 12.5 ± 1.78.
